2 molecules from article PMC9652372, “Glycolytic flux control by drugging phosphoglycolate phosphatase” (Nature Communications, 2022) can be followed below.

Data set [1] has as its target T1, NANP/HDHD4 (Mus musculus, UniProt Q9CPT3).
T1 construct: made in house; host or cells: Escherichia coli BL21 (DE3), pETM11 (cDNA from Origene #MR203153)
T1 sequence (Q9CPT3 1-248): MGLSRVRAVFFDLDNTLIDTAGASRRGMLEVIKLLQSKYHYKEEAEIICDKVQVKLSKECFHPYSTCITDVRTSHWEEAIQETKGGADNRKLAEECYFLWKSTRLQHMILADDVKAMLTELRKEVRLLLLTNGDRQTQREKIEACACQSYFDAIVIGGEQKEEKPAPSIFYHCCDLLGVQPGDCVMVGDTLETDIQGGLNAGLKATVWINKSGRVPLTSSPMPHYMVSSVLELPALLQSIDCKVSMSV
The data set can be described thus: In vitro phosphatase activity assay, NANP/HDHD4 (6-phosphogluconate). The format is biochemical, murine. Conditions: NANP activity on 6-phosphogluconate. The source says:
The following phosphatase constructs (in pCMV6) were purchased from Origene: murine LHPP (NM_029609; catalog #MC211738), murine LPIN1, transcript variant 2 (NM_015763, #MC204460), murine MDP1 (NM_023397, #MR201315), murine […]_026086, #MR203153), murine NT5C (NM_015807, #MR202028), human NT5M (NM_020201, #RC207737), murine PNKP (NM_021549, #MR207938), and murine PSPH (NM_133900, #MR202626). Purified human NT5C1A (NM_032526, #TP324617) and purified human PHOSPHO1 (NM_178500, #TP314434) were from Origene. The murine PHOSPHO2 construct (in pFLCI) was from Source BioScience (clone ID: I420023L04). Calf intestinal alkaline phosphatase (CIP) was from NEB. Purified, recombinant human calcineurin (PP2B) and human PTP1B (residues 1-322) were from Millipore (#207005 or #539736, respectively). […] The 3'-P-oligonucleotide 5'-[NT]^3-]-3' was used as a PNKP substrate. […] Data were analyzed with GraphPad Prism 7.04. […] (c) Upper panel, purity of the tested, recombinant phosphatases (10 μg of protein/lane). A Coomassie Blue-stained gel is shown. Tested enzymes that are not included in this panel were obtained commercially. Lower panel , Western blots showing the overexpression of the myc-tagged cytosolic 5', 3'-nucleotidase NT5C and mitochondrial 5', 3'-nucleotidase NT5M in HEK293 cells (uncropped blots in Source Data). […] Error bars not shown are hidden by the symbols. […]

In data set [2] the test system is HT1080 cells. The data set can be described thus: Cell viability assay (AquaBluer). The format is cell-based, human. As for the experimental part:
Cell viability was assessed using AquaBluer according to the manufacturer’s recommendations (MultiTarget Pharmaceuticals, LLC). Fluorescence (excitation: 540 nm; emission: 590 nm) was analyzed on a Clariostar microplater reader.

Data set [3] relates to HT1080 cells. Description: Lipid droplet staining (perilipin-3). It counts as cell-based, human. As for the experimental part:
Cells were fixed for 15 min with 4% para-formaldehyde, permeabilized and blocked with 0.2% saponin/2% bovine serum albumin (BSA) for 1 hr, and immunostained for 1 hr using α-rabbit TIP47/perilipin 3 antibodies (1:100 dilution, abcam #47638) in 0.2% saponin/1% BSA. Primary antibodies were detected with Alexa Fluor 488-labeled goat anti-rabbit secondary antibodies (1:400; Molecular Probes/Thermo Fisher Scientific), and nuclei were counterstained with DAPI. Cells were mounted with Immu-Mount (Fisher Scientific), and imaged by fluorescence microscopy on a THUNDER imager (THUNDER Imager Live Cell & 3D Cell Culture & 3D Assay system, Leica DMI8; Leica Microsystems), using a 63 × objective and the Leica Application suite X software 3.7.4.23463. To determine the number of lipid droplets per cell, cell borders were defined semi-automatically, and bright objects in this region of interest were counted using the ImagePro-Plus software version 7.0. Statistical significance was assessed using GraphPad Prism 9.4.1 software.

The target in data set [4] is T2, PGP^S71R (Mus musculus, UniProt Q8CHP8, S71R).
T2 sequence (Q8CHP8 1-321 S71R): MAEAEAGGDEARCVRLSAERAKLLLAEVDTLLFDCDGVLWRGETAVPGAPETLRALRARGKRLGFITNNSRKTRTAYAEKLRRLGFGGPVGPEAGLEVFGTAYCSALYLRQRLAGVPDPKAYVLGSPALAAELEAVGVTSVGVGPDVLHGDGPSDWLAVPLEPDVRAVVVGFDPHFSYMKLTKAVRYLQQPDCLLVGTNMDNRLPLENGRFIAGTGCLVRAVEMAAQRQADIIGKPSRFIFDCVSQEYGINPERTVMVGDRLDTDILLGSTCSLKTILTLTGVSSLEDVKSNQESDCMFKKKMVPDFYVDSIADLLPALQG
Conditions: read-out: enzyme activity in presence of CP1 relative to DMSO control (1), mPGP-S71R, Exp #1-#3.

For data set [5], the target named is T3, PGP^P127E (Mus musculus, UniProt Q8CHP8, P127E).
T3 sequence (Q8CHP8 1-321 P127E): T2 sequence (Q8CHP8 1-321 S71R) with R71S, P127E
Conditions: read-out: enzyme activity in presence of CP1 relative to DMSO control (1), mPGP-P127E.

Substitutions are numbered along the chain they refer to. “And” between values parts separate entries of the source, which are not always exact repeats. Identical values can stand only once. “Also recorded” adds a separate entry of the source.

What is called IC50 is the concentration needed to halve the response being measured. In data set [1], `COc1ccc(C(=O)Nc2ccc(Cc3ccc(NC(=O)c4ccc(OC)c(OC)c4)c(C(=O)O)c3)cc2C(=O)O)cc1OC` [CP2] came in with an IC50 of roughly 1000 nM.

Take `O=C(Nc1ccccc1C(=O)O)c1ccc(Oc2ccc(C(=O)Nc3ccccc3C(=O)O)cc2)cc1` [CP1]: the fluorescence intensity in data set [2] (CP1 10µM) is 73536.5 arbitrary units and 54985.5 arbitrary units and 58790.8 arbitrary units; in data set [2] (CP1 33 µM), 67669 arbitrary units and 60068 arbitrary units and 61386.5 arbitrary units; in data set [2] (CP1 100 µM) it was 68775 arbitrary units and 63101.8 arbitrary units and 70832.2 arbitrary units; in data set [2] (CP1 200 µM), 68392.2 arbitrary units and 53769.5 arbitrary units. Besides, the cytotoxicity result in data set [2] (HT1080 cells, 100 µM, 24 h) is “not cytotoxic”. In addition, the “lipid droplet (LD) accumulation” value in data set [3] is “time- and concentration-dependent accumulation of LDs; also recorded: effectively increased LDs in PGP-WT but not in PGP-KO cells”. Moreover, in data set [4] (CP1 log[M] -4.40), the remaining activity at 39.81 µM amounted to 25%. In addition, the remaining activity at 19.95 µM in data set [4] (CP1 log[M] -4.70) was determined as 38%. In data set [4] (CP1 log[M] -5.00), the remaining activity at 10 µM stood at 50%. In addition, the remaining activity at 5.012 µM in data set [4] (CP1 log[M] -5.30) stood at 68%. Moreover, the remaining activity at 2.512 µM in data set [4] (CP1 log[M] -5.60) is 81%. Also, the remaining activity at 0.631 µM in data set [4] (CP1 log[M] -6.20) came to 95%. Besides, the remaining activity at […] in data set [4] (CP1 log[M] -6.51) stood at 100%. Further, the remaining activity at 0.1549 µM in data set [4] (CP1 log[M] -6.81) turned out to be 92%. Besides, in data set [5] (CP1 log[M] -4.49, Exp #1-#3), the remaining activity at 32.36 µM is 15%. Also, the remaining activity at 15.85 µM in data set [5] (CP1 log[M] -4.80, Exp #1-#3) is 27%. Also, in data set [5] (CP1 log[M] -5.10, Exp #1-#3), the remaining activity at 7.943 µM stood at 45%. The remaining activity at 3.981 µM in data set [5] (CP1 log[M] -5.40, Exp #1-#3) worked out at 64%. For the same molecule, the remaining activity at 1.995 µM in data set [5] (CP1 log[M] -5.70, Exp #1-#3) came out at 80%. The remaining activity at 1 µM in data set [5] (CP1 log[M] -6.00, Exp #2-#3) was 85%. Moreover, in data set [5] (CP1 log[M] -6.30, Exp #1-#3), the remaining activity at 0.5012 µM stood at 81%. Further, the remaining activity at 0.2512 µM in data set [5] (CP1 log[M] -6.60, Exp #1-#3) turned out to be 94%. The remaining activity at 0.1259 µM in data set [5] (CP1 log[M] -6.90, Exp #1-#3) amounted to 92%.
